The results in this text go back to paper PMC6262408, “Recovery of the Peptidoglycan Turnover Product Released by the Autolysin Atl in Staphylococcus aureus Involves the Phosphotransferase System Transporter MurP and the Novel 6-phospho-N-acetylmuramidase MupG” (Frontiers in Microbiology, 2018).

In this assay the target is T1, MupG (Staphylococcus aureus, UniProt A0A0H2XHV5).
T1 sequence (A0A0H2XHV5 1-351): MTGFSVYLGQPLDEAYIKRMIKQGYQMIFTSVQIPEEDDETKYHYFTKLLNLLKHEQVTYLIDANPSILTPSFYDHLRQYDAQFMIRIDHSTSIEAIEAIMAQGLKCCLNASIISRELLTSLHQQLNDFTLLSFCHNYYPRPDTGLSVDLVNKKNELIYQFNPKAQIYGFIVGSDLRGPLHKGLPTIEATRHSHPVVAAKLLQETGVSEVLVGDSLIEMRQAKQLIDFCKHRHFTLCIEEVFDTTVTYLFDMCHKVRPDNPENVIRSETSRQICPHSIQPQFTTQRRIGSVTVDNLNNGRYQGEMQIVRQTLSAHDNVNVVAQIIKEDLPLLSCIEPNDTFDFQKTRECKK
The assay is described as follows: LC-MS of hydrolysis by recombinant enzyme. In kind it is biochemical. To be noted: substrate in acetone extract of ΔmupG cytosol; 1 μg enzyme, 2.5 h, 37 °C; products MurNAc 6P and GlcNAc.

For the compound `CC(=O)N[C@H]1[C@H](O[C@H]2[C@H](O)[C@@H](NC(C)=O)C(O)O[C@@H]2CO)O[C@H](COP(=O)(O)O)[C@@H](O)[C@@H]1O[C@H](C)C(=O)O` (stereo partly shown) [MurNAc 6P-GlcNAc], the “LC-MS of hydrolysis by recombinant enzyme” value was “recombinantly produced MupG cleaved MurNAc 6P-GlcNAc, releasing MurNAc 6P and GlcNAc”.
